Consider 23 compounds from patent publication US9796706B2, “Inhibitors of Jun N-terminal kinase” (IMAGO PHARMACEUTICALS, INC., priority 2009, dated 2017).

A word on the IC50: it is the concentration that inhibits the measured activity by half.

What all share (format): biochemical
Common to all, as to details: procedures of Example 14 (TR-FRET)
(In general: Time-resolved FRET reads energy transfer from a long-lived donor to a nearby acceptor.)

Test [1] has as its target JNK1 (Homo sapiens (Human), UniProt P45983). In words: JNK1 TR-FRET kinase assay (Example 14). The procedure: (§1) 14.3. Active JNK 1, 2 and 3 TR-FRET Assay
(§2) (1) Assay buffer #1 with 0.0025% Tween and 1 mM DTT was prepared using JNK buffer stock solution.
(§3) (2) Assay buffer #2 with 0.025% BSA was prepared using the assay buffer #1.
(§4) (3) Test compound solution preparation: 5× compound solution was prepared using assay buffer #1 with 5% DMSO. The compound solution (10 μl/well) was added to a 384-well plate (Corning, Cat No. 3654).
(§5) (4) aJNK1, 2 or 3 preparation: aJNK stock (100 μg/ml) at −80° C. was thawed on ice and an aJNK (1.6 ng/ml) solution was prepared using assay buffer #2. The aJNK solution (20 μl/well) was added to the plate and the plate was shaken. The enzyme was incubated with the compound at RT for 10 min. (5) ATP/substrate solution preparation: ATP and substrate stocks were thawed on ice. 2.5×ATP/substrate (e.g., 25 μM or 2.5 mM ATP/50 nM EPIW-1) was prepared using assay buffer #1. The ATP/substrate (20 μl/well) was added to the plate and the plate was shaken. The plate was incubated at RT for 15 min. Note: In an exemplary assay, the final ATP concentration was about 1 mM. (6) EDTA preparation: 30 mM EDTA was prepared using 0.5M EDTA stock and assay buffer #1. The EDTA (10 μl/well) was added to the plate to quench the enzyme reaction and the plate was shaken well. (7) Detection reagent preparation: Eu-63 and SA-XL stocks were thawed on ice. 4× Eu-63/SA-XL (2 nM Eu-63/9.4 nM SA-XL) was prepared using JNK detection buffer. The Eu-63/SA-XL solution (20 μl/well) was added to the plate and the plate was shaken. The plate was incubated at RT for 1 hr before reading the plate on LJL using ratiometric method named HTRF.
(§6) 14.4. Coupled JNK 1, 2 and 3 TR-FRET Assay
(§7) (1) Assay buffer with 0.0025% Tween, 0.01% BSA, and 1 mM DTT was prepared using JNK buffer stock solution.
(§8) (2) Test compound solution preparation: 5× compound solution, including EDTA background, was prepared using assay buffer with 5% DMSO. The compound solution (10 μl/well) was added to a 384-well plate (Corning, Cat No. 3654).
(§9) (3) uJNK1,2, or 3 activation reaction preparation: uJNK activation solution was prepared using assay buffer (1.6 ng/ml MKK4, 1.6 ng/ml MKK7, 16 ng/ml uJNK, and 20 uM ATP final). The uJNK activation solution (35 μl/well) was added to the plate, the plate was shaken, and the reaction mixture was incubated with compound at 30° C. for 60 min. (4) c-Jun substrate solution preparation: 50 nM EPIW-1, c-Jun peptide, was prepared using assay buffer (15 nM final). The EPIW-1 solution (15 μl/well) was added to the plate, the plate was shaken and incubated at 30° C. for 60 min. (5) EDTA preparation: 30 mM EDTA was prepared using 0.5M EDTA stock and assay buffer. The EDTA (10 μl/well) was added to the plate to quench the enzyme reaction and the plate was shaken well. (6) Detection reagent preparation: Eu-73 and SA-XL stocks were thawed on ice. 4× Eu-73/SA-XL (2 nM Eu-73/9.4 nM SA-XL) were prepared using JNK detection buffer. The Eu-73/SA-XL solution (20 μl/well) was added to the plate. The plate was shaken and incubated at RT for 1 hr before reading the plate on LJL using ratiometric method named HTRF.

Test [2] concerns the target JNK2 (Homo sapiens (Human), UniProt P45984). In words: JNK2 TR-FRET kinase assay (Example 14). The procedure: as §1, §2, §3, §4, §5, §6, §7, §8, §9
Test [3] concerns the target JNK3 (Homo sapiens (Human), UniProt P53779). In words: JNK3 TR-FRET kinase assay (Example 14). The procedure:
as §1, §2, §3, §4, §5, §6, §7, §8, §9

Sequence of JNK1 (P45983 other isoform, or with tags, fused parts or gaps isoform P45983-2, species assumed): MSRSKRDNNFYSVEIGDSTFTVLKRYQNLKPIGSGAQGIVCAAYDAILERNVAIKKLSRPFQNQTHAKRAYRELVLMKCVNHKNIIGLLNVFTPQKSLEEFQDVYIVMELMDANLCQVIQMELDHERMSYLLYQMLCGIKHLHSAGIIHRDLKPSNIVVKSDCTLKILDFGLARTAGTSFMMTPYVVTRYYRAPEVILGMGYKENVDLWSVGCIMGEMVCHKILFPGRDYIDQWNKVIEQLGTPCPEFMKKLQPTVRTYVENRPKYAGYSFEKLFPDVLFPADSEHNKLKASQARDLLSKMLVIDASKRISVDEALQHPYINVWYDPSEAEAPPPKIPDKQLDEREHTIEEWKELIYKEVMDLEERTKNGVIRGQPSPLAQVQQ
Sequence of JNK3 (P53779 whole entry, species assumed): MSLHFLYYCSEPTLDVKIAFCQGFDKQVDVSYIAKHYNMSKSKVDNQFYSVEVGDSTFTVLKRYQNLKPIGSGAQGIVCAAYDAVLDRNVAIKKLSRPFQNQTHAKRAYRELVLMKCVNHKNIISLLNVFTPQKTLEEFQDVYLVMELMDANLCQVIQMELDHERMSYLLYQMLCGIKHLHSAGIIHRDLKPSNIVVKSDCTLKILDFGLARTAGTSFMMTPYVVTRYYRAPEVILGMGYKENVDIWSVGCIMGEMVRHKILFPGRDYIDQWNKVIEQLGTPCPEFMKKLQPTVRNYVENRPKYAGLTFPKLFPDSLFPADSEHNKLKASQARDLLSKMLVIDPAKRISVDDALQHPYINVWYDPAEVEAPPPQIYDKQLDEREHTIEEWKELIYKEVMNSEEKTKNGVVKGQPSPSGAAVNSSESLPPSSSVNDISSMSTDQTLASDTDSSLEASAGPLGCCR
Sequence of JNK2 (P45984 whole entry, species assumed): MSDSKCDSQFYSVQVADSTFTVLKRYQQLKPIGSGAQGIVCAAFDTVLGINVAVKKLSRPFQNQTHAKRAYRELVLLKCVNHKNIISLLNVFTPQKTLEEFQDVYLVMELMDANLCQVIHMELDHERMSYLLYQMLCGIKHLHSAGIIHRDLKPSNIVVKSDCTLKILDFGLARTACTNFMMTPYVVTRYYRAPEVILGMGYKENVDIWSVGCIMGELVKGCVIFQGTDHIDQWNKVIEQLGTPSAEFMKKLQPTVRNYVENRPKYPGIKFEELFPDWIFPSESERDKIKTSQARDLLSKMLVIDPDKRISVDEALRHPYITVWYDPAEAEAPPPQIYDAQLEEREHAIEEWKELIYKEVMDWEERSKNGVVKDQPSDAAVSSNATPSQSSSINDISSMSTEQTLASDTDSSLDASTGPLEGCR

Turning to `Cc1csc(NC(=O)Cc2ccc(OCCCN3CCCCC3)cc2)c1-c1ncn[nH]1` [N-(4-methyl-3-(1H-1,2,4-triazol-5-yl)thiophen-2-yl)-2-(4-(3-(piperidin-1-yl)propoxy)phenyl)acetamide], the IC50 in test [1], in test [2] and in test [3] was 100 to 10000 nM in each case.

With `O=C(Cn1c(=O)ccc2cc(F)c(F)cc21)Nc1scc(Br)c1-c1ncn[nH]1` [N-(4-bromo-3-(1H-1,2,4-triazol-5-yl)thiophen-2-yl)-2-(6,7-difluoro-2-oxoquinolin-1(2H)-yl)acetamide], the IC50 in test [1], in test [2] and in test [3] was less than 100 nM throughout.

As for `O=C(Cc1cccc2ncc(C(F)(F)F)cc12)Nc1scc(Br)c1-c1nc[nH]n1` [N-(4-bromo-3-(1H-1,2,4-triazol-3-yl)thiophen-2-yl)-2-(3-(trifluoromethyl)quinolin-5-yl)acetamide], the IC50 in test [1] was less than 100 nM; in test [2], 100 to 10000 nM; in test [3], less than 100 nM.

Turning to `N#Cc1csc(NC(=O)Cn2c(=O)ccc3cc(C(F)(F)F)ccc32)c1-c1ncco1` [N-(4-cyano-3-(oxazol-2-yl)thiophen-2-yl)-2-(2-oxo-6-(trifluoromethyl)quinolin-1(2H)-yl)acetamide], the half-inhibitory concentration (IC50) in test [1], in test [2] and in test [3] was less than 100 nM throughout.

In the case of `O=C(Cn1c(=O)ccc2nc(C(F)(F)F)ccc21)Nc1scc(Cl)c1-c1ncn[nH]1` [N-(4-chloro-3-(1H-1,2,4-triazol-5-yl)thiophen-2-yl)-2-(2-oxo-6-(trifluoromethyl)-1,5-naphthyridin-1(2H)-yl)acetamide], the IC50 in test [1], in test [2] and in test [3] was less than 100 nM each time.

Turning to `Cn1ccnc1-c1sccc1NC(=O)Cc1cccc2ccccc12` [N-(2-(1-methyl-1H-imidazol-2-yl)thiophen-3-yl)-2-(naphthalen-1-yl)acetamide], the IC50 in test [1] was greater than 10000 nM; in test [2], greater than 50000 nM; in test [3], greater than 10000 nM.

On to `N#Cc1csc(NC(=O)CN2C(=O)CCc3ncccc32)c1-c1nccs1` [N-(4-cyano-3-(thiazol-2-yl)thiophen-2-yl)-2-(2-oxo-3,4-dihydro-1,5-naphthyridin-1(2H)-yl)acetamide], for which the IC50 in test [1], in test [2] and in test [3] was less than 100 nM in each case.

As for `Cc1n[nH]c(-c2sccc2NC(=O)Cc2cccc3ccccc23)n1` [N-(2-(3-methyl-1H-1,2,4-triazol-5-yl)thiophen-3-yl)-2-(naphthalen-1-yl)acetamide], the IC50 in test [1], in test [2] and in test [3] was 100 to 10000 nM in each case.

Take `COc1ccc(CC(=O)Nc2ccsc2-n2cccn2)cc1` [N-(2-(1H-pyrazol-1-yl)thiophen-3-yl)-2-(4-methoxyphenyl)-acetamide]: the results for the IC50 in test [1], in test [2] and in test [3] were greater than 10000 nM, greater than 50000 nM and greater than 10000 nM, respectively.

Take `O=C(Cc1cccc2cnccc12)Nc1ccsc1-c1ncco1` [2-(isoquinolin-5-yl)-N-(2-(oxazol-2-yl)thiophen-3-yl)acetamide]: the IC50 in test [1], in test [2] and in test [3] was 100 to 10000 nM in each case.

Turning to `O=C(CN1C(=O)CCc2cc(F)ccc21)Nc1scc(Br)c1-c1ncn[nH]1` [N-(4-bromo-3-(1H-1,2,4-triazol-5-yl)thiophen-2-yl)-2-(6-fluoro-2-oxo-3,4-dihydroquinolin-1(2H)-yl)acetamide], the IC50 in test [1], in test [2] and in test [3] was less than 100 nM in each case.

With `CCc1n[nH]c(-c2sccc2NC(=O)Cc2ccc(OC)cc2)n1` [N-(2-(3-ethyl-1H-1,2,4-triazol-5-yl)thiophen-3-yl)-2-(4-methoxyphenyl)acetamide], the IC50 in test [1], in test [2] and in test [3] was 100 to 10000 nM throughout.

Turning to `O=C(Cc1cc2ncccc2cc1F)Nc1scc(Br)c1-c1ncn[nH]1` [N-(4-bromo-3-(1H-1,2,4-triazol-5-yl)thiophen-2-yl)-2-(6-fluoroquinolin-7-yl)acetamide], the figures for the concentration for half-maximal inhibition (IC50) in test [1], in test [2] and in test [3] were less than 100 nM, 100 to 10000 nM and 100 to 10000 nM, respectively.

As to `Cn1cnc(-c2c(Cl)csc2NC(=O)Cn2c(=O)ccc3cnc(C(F)(F)F)cc32)n1` [N-(4-chloro-3-(1-methyl-1H-1,2,4-triazol-3-yl)thiophen-2-yl)-2-(2-oxo-7-(trifluoromethyl)-1,6-naphthyridin-1(2H)-yl)acetamide], the IC50 in test [1], in test [2] and in test [3] was less than 100 nM in each case.

With `O=C(Cn1c(=O)ccc2cc(Br)ccc21)Nc1scc(Br)c1-c1nc[nH]n1` [2-(6-bromo-2-oxoquinolin-1(2H)-yl)-N-(4-bromo-3-(1H-1,2,4-triazol-3-yl)thiophen-2-yl)acetamide], the IC50 in test [1], in test [2] and in test [3] was less than 100 nM throughout.

Consider `COc1ccc(CC(=O)Nc2ccsc2-c2cn(C)cn2)cc1` [2-(4-methoxyphenyl)-N-(2-(1-methyl-1H-imidazol-4-yl)thiophen-3-yl)acetamide], for which the IC50 in test [1] was greater than 10000 nM; in test [2] it was greater than 50000 nM; in test [3] it was greater than 10000 nM.

Take `O=C(Cc1cccc2ncccc12)Nc1scc(Cl)c1-c1ncn[nH]1` [N-(4-chloro-3-(1H-1,2,4-triazol-5-yl)thiophen-2-yl)-2-(quinolin-5-yl)acetamide]: the IC50 in test [1], in test [2] and in test [3] was less than 100 nM throughout.

On to `O=C(Cn1c(=O)ccc2c(C(F)(F)F)cccc21)Nc1scc(Br)c1-c1ncn[nH]1` [N-(4-bromo-3-(1H-1,2,4-triazol-5-yl)thiophen-2-yl)-2-(2-oxo-5-(trifluoromethyl)quinolin-1(2H)-yl)acetamide], for which the IC50 in test [1] was less than 100 nM; in test [2], 100 to 10000 nM; in test [3] it was less than 100 nM.

For the compound `O=C(Cc1cccc2ncccc12)Nc1scc(Br)c1-c1ncn[nH]1` [N-(4-bromo-3-(1H-1,2,4-triazol-5-yl)thiophen-2-yl)-2-(quinolin-5-yl)acetamide], the IC50 in test [1], in test [2] and in test [3] was less than 100 nM throughout.

Take `O=C(Cc1cccc2ccccc12)Nc1ccsc1-c1nnco1` [N-(2-(1,3,4-oxadiazol-2-yl)thiophen-3-yl)-2-(naphthalen-1-yl)acetamide]: the IC50 was 100 to 10000 nM in test [1], greater than 10000 nM in test [2] and 100 to 10000 nM in test [3].

Turning to `O=C(Cn1c(=O)ccc2cnc(C(F)(F)F)cc21)Nc1scc(Br)c1-c1ncn[nH]1` [N-(4-bromo-3-(1H-1,2,4-triazol-5-yl)thiophen-2-yl)-2-(2-oxo-7-(trifluoromethyl)-1,6-naphthyridin-1(2H)-yl)acetamide], the IC50 in test [1], in test [2] and in test [3] was less than 100 nM in each case.

On to `C#Cc1ccc2c(ccc(=O)n2CC(=O)Nc2scc(Br)c2-c2ncn[nH]2)c1` [N-(4-bromo-3-(1H-1,2,4-triazol-5-yl)thiophen-2-yl)-2-(6-ethynyl-2-oxoquinolin-1(2H)-yl)acetamide], for which the IC50 in test [1], in test [2] and in test [3] was less than 100 nM each time.

Turning to `O=C(Cc1cccc2cnccc12)Nc1ccsc1-c1cscn1` [2-(isoquinolin-5-yl)-N-(2-(thiazol-4-yl)thiophen-3-yl)acetamide], the IC50 in test [1], in test [2] and in test [3] was 100 to 10000 nM in each case.
